Laboratory results taken from patent US20120157401A1, “METHODS FOR TREATING NEUROFIBROMATOSIS” (PTC Therapeutics, Inc., priority 2009, published 2012).
“Also recorded” adds a separate entry of the source.

What was measured:
[1] = tested on: HT1080 spheroids; assay: 3-dimensional growth of HT1080 spheroids (BrdU / 7-AAD FACS, morphology); assay type: cell-based, human
Method: Experimental Design. HT1080 cells grown as a monolayer were trypsinized and seeded onto a 0.75% agar noble base to prevent the cells from attaching to the bottom of the tissue culture plate and to allow/promote the cells to self-adhere and grow as 3-dimensional spheroids. […] The cells were incubated for 22 and 45 hours at 37° C., in the presence of a 10% CO2 atmosphere. Spheroids were visually checked daily for morphological changes and a medium was replenished two times per week. […] These pulse labeled spheroids were then harvested, washed and trypsinized (triple action solution, Gibco), pelleted and prepared for FACS analysis with a FITC BrdU Flow Kit, (BD Pharmingen). Cells were fixed and permeabilized with paraformadehyde and DNA stained with 7-AAD followed by incubation with an antibody which specifically recognizes […] incorporated into DNA. As described in Section 9.3.1.4. Cells were analyzed and sorted by 7-AAD signal (DNA content) to determine cell cycle phase, and BrdU content (percent actively synthesizing DNA).
Spheroids, prepared as above, were treated with either vehicle alone (0.5% DMSO v/v final) added to the media or a Compounds provided herein (10 nM or 50 nM final concentration) in media to which vehicle has been added.

[2] = tested on: VEGF189 and VEGF206 isoforms; assay: In-Cell Western / Western blot of matrix associated VEGF189/206 production in HT1080 cells; assay type: cell-based, human; conditions: HT1080, normoxic, 48 hours
Method: Experimental Design. HT1080 (human fibrosacoma) cell cultures were established under normoxic conditions (21% oxygen). HT1080 cells constitutively overproduce VEGF even under normoxic conditions. […] At the completion of treatment, the cells were washed and harvested. Cells were incubated with a primary antibody that recognizes the VEGF189 and VEGF206 isoforms. Infrared-dye labeled antibodies were applied secondarily, and the amounts of VEGF189 and VEGF206 were determined using the IN-CELL WESTERN® assay and ODYSSEY® infrared imaging system (Li-Cor, Lincoln, Nebr., USA); results are expressed as percentage inhibition relative to vehicle treated controls. Conventional Western blotting using the same primary antibody was also performed to confirm the presence of the matrix associated isoforms; for these experiments actin was used as a loading control. Actin is a ubiquitous housekeeping protein that is not known to be post transcriptionally regulated.

[3] = tested on: physiological VEGF-A; assay: Phase 1 multiple-dose study: plasma and serum physiological VEGF-A concentrations; assay type: in vivo, human; conditions: healthy volunteers, all doses tested
Text: Plasma VEGF Concentrations: Plasma and serum VEGF concentrations and concentration changes from baseline were presented descriptively.

[4] = Oral pharmacokinetics / toxicokinetics in rats; assay type: in vivo, Sprague Dawley rats
Method: The pharmacokinetic evaluations in mice were adjuncts to the primary pharmacodynamic xenograft studies. The evaluations in rats included toxicokinetic assessments in single-dose, 7-day, and 28-day toxicology studies as well as a mass-balance study after a single oral dose of ^14C-Compound #10. The evaluations in dogs included toxicokinetic assessments in 7-day and 28-day toxicology studies. In the studies performed, rodents were dosed once daily with Compound #10 formulated in vehicle and administered via oral gavage.

[5] = molecular target: T1, CYP2C9 (Homo sapiens, UniProt P11712); assay: CYP inhibition: CYP2C9; assay type: in vitro ADME; conditions: human hepatic microsomes or recombinant isoenzymes
T1 construct: host or cells: human hepatic microsomes or recombinant isoenzyme (not distinguished)
T1 sequence (P11712 whole entry): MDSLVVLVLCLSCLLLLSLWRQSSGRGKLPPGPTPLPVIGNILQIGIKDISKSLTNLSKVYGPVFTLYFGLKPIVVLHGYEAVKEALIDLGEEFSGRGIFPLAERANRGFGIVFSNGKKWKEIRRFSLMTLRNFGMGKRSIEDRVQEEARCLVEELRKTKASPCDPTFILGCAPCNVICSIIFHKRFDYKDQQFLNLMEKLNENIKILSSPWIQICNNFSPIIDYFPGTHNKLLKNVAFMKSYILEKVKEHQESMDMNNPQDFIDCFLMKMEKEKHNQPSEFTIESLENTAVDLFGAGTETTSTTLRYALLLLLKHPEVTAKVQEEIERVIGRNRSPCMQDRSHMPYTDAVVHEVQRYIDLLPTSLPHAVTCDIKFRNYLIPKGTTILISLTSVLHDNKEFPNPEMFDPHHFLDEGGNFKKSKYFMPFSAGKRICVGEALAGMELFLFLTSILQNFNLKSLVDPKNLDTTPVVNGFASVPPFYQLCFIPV
Text: It is possible that in certain clinical trial subjects, such agents may need to be adjusted for dosing or replaced by alternative agents that are not metabolized by CYP2D6, particularly when such agents may have a low therapeutic index.

[6] = 14C-Compound #10 tissue distribution by quantitative whole-body autoradiography (Tables 23, 33); assay type: in vivo; conditions: rats, single oral 50 mg/kg
Method: For the QWBA, the carcasses were prepared by immediately freezing them, embedding them in chilled carboxymethylcellulose, and freezing them into blocks. Appropriate cryomicrotome sections of the blocks at 40 μm thickness were collected on adhesive tape. Mounted sections were tightly wrapped and exposed on phosphorimaging screens along with plastic embedded autoradiographic standards. Exposed screens were scanned and the autoradiographic standard image data were sampled to create a calibrated standard curve. Specified tissues, organs, and fluids were analyzed.

[7] = molecular target: human-ether-a-go-go-related gene (hERG) current (Homo sapiens, UniProt Q12809); assay: Higher throughput hERG assay; assay type: cell-based
Sequence of human-ether-a-go-go-related gene (hERG) current (Q12809 whole entry): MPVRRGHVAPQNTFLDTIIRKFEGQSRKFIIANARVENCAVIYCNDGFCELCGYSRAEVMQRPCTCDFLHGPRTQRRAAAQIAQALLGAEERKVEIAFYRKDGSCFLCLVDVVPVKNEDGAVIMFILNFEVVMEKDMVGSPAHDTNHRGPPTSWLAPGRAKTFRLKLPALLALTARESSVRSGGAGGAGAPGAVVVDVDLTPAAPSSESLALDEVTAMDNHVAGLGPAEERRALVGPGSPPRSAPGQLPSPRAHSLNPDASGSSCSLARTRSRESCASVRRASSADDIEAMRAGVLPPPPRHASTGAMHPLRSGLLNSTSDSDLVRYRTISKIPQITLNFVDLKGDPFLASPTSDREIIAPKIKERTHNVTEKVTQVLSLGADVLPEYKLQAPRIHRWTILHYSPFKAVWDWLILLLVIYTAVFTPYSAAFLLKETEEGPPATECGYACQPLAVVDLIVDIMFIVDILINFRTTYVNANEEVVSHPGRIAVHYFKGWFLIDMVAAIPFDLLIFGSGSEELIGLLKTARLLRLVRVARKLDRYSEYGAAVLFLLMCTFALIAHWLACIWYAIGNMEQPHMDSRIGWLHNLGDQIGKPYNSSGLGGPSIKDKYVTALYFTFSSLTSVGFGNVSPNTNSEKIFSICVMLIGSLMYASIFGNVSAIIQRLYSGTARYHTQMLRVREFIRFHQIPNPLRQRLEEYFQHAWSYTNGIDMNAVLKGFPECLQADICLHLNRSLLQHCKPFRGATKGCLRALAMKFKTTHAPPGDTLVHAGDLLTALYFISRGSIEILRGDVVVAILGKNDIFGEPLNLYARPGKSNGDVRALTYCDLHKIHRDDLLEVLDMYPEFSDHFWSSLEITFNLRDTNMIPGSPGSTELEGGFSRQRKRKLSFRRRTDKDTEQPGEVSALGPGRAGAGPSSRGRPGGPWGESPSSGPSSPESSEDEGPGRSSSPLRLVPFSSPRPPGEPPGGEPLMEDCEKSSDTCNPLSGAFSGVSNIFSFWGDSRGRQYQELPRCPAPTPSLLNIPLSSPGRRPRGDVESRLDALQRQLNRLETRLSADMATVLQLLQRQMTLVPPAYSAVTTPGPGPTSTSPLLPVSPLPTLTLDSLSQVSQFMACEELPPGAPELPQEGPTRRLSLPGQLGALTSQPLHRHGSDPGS

[8] = tested on: tumor vessels (CD31 endothelial cells); assay: Intratumoral microvessel density, anti-murine CD31 immunostain, HT1080 xenografts; assay type: in vivo, athymic nude mice; conditions: racemic mixture, 5 mg/kg of Compound #10 oral BID, 10 days
Method: Experimental Design. HT1080 cells (5×10^6 cells/mouse) were implanted subcutaneously in male athymic nude mice.
At the end of treatment, the mice were sacrificed. Excised tumors were assayed by ELISA for VEGF content as described in Section 9.1.1.1, and were sectioned and immunostained with an anti murine CD31 antibody that is specific for endothelial cells.

[9] = Single-dose oral toxicity study in rats; assay type: in vivo
Method: A battery of genotoxicity studies was also performed. […] The L23 vehicle was used.
Because maximal exposure occurred at 100 mg/kg, this dose is considered the NOAEL for 1 day of dosing.

[10] = tested on: HT1080 cells; assay: Reversibility of cell cycle delay after washout in HT1080 cells; assay type: cell-based, human; conditions: HT1080, 100 nM for 14 hours, then washout
[11] = tested on: SY5Y orthotopic xenografts; assay: Orthotopic SY5Y neuroblastoma tumor model (kidney capsule): tumor weight; assay type: in vivo
Text: Experimental Design. In orthotopic tumor models, human tumor cells are implanted into the mouse in an organ that corresponds to the location from which the tumors arise. Such models may provide a better predictor of clinical efficacy than injection of tumors into the flanks of nude mice. See Hoffman, Invest. New Drugs 1999, 17(4):343-59. SY5Y neuroblastoma or SKNEP Ewing sarcoma tumor cells (1×10^6 cells/mouse) were implanted into the kidney capsule of female athymic nude mice according to published methods. See Huang et al., Proc. Natl. Acad. Sci. USA 2003, 100(13):7785-90. One week after implantation of each type of tumor, mice were divided into 2 groups and were administered a test Compound as shown in Table 21.
After 5 weeks of treatment, the mice were sacrificed, and the weights of the tumors were assessed.

For `COc1ccc(C2c3[nH]c4ccc(Cl)cc4c3CCN2C(=O)Oc2ccc(Cl)cc2)cc1` (racemic) [Compound #10], the “Cell cycle distribution of HT1080 spheroids” value ([1]; 24 or 48 hours) was “not affected”, the “Percentage of spheroid cells that incorporated BrdU” value ([1]; 24 or 48 hours) was “not significantly altered” and the Morphology of spheroids ([1]; maintained in the presence of compound for three weeks, data not shown) was “no obvious morphological changes”. For the same compound, the “Inhibition of VEGF189 and VEGF206 isoforms” value [2] was “potent concentration-dependent inhibition”, the “Effect on plasma or serum physiological VEGF-A concentrations” value [3] was “no clear dose dependent effects; also recorded: No significant alterations” and the Oral bioavailability [4] was “orally bioavailable”. For the same compound, the “Inhibition of CYP2C9” value [5] was “No meaningful inhibition”, the “Tmax of radioactivity in blood and plasma” value ([6]; both sexes) was 4 hours postdose and the Blood-brain barrier penetration [6] was “penetrates the blood-brain barrier”. The “Overt signs of toxicity” value [6] was “no overt signs of toxicity”, the “Inhibition of hERG current” value [7] was “negative for meaningful inhibition” and the “Total volume of tumor vessels and diameters of vessels” value [8] was “visibly reduced”. The Tumor vessel count [8] was “unchanged”, the “Dose of maximal exposure” value ([9]; Sprague Dawley, rat, in vivo, po, 1 day) was 100 mg/kg and the NOAEL at 1 day ([9]; Sprague Dawley, rat, in vivo, rats, single oral gavage, read-out: NOAEL for 1 day of dosing) was 100 mg/kg. For the same compound, the “Clinical or clinical pathological toxicities” value ([9]; rats, single oral 100, 200, or 400 mg/kg) was “no notable clinical or clinical pathological toxicities”, the “Time after washout by which cells had resumed normal cycling” value [10] was no more than 26 h and the “Growth of orthotopic SY5Y tumors (tumor weight)” value ([11]; 5 weeks of treatment) was “completely prevented growth”. The “Toxicity on observing the animals” value ([11]; orthotopic SKNEP and SY5Y mice) was “no evidence of toxicity”.
